For six compounds, IC50 and EC50 results are on record in patent publication US20160303095A1, “METHODS OF TREATING HEPATITIS B VIRUS” (Gilead Sciences, Inc., priority 2015, published 2016).

Like-named read-outs stand apart in the source and are kept apart here.

Test [1] addresses T1, KDM2B (Homo sapiens, UniProt Q8NHM5).
T1 construct: host or cells: Sf9 cells
T1 sequence (Q8NHM5 1-1336): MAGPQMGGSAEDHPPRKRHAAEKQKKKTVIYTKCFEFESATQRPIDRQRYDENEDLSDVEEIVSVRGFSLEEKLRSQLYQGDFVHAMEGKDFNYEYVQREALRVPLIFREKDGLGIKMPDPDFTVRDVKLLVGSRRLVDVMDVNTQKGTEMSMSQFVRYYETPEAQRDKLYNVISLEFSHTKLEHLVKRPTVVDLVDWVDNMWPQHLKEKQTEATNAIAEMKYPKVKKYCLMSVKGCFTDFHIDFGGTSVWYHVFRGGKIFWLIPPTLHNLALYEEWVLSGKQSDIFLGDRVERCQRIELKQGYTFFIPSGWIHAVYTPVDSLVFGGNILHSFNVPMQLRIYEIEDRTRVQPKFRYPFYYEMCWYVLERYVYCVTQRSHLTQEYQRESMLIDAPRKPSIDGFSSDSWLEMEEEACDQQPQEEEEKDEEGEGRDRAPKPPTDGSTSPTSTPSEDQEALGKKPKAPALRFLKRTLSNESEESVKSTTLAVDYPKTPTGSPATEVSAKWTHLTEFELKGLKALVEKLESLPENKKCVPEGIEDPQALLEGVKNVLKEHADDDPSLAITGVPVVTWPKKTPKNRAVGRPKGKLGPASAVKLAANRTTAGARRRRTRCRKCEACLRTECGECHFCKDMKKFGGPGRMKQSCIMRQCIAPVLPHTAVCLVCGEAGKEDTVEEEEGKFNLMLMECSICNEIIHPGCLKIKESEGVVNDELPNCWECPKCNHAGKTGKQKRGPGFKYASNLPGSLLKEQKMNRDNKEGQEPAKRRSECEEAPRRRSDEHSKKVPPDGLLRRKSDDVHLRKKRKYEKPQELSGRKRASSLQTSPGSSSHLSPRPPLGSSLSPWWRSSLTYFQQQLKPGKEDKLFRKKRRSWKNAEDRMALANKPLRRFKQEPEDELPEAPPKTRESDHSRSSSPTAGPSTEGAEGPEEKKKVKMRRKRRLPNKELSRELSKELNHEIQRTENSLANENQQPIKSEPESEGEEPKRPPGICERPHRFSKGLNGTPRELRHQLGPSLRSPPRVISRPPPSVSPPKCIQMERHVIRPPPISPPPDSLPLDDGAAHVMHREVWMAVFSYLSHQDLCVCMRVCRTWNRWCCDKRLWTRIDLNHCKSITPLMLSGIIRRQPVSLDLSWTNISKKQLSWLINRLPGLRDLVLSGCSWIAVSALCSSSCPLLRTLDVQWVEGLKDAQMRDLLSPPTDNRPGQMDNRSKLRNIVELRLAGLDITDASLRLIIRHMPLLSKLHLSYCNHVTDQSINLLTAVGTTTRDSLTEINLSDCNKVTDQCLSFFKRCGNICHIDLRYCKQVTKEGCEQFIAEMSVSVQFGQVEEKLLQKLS
In words: Biochemical KDM inhibition assay (LANCE), KDM2B. Conditions: read-out: Biochemical IC50 KDM 2B. The protocol:
Representative compounds were characterized for their inhibition of KDM5 using biotinylated histone substrates. Inhibition was measured in vitro (CEREP Poitier, Le Bois l'Evêque, France) following experimental conditions described in Table 2. Briefly, the test compound, reference compound or water (control) was mixed with about 2-20 ng of recombinant, Human enzymes expressed in Sf9 cells in a buffer containing 45 mM Hepes/Tris (pH 7), 5 μM FAS, 100 μM ascorbic acid, 10 μM 2-oxoglutarate, 0.01% Tween 20 and 0.01% BSA. Thereafter, the reaction was initiated by adding the biotin-labeled substrate, and the mixture was incubated for 10-30 min at room temperature. For basal control measurements, the enzyme was omitted from the reaction mixture. Following incubation the reaction was stopped by adding 1 mM EDTA. After 5 min, the anti-methyl histone antibody labeled with europium chelate and the Ulight streptavidine (Perkin Elmer Waltham, Mass.) were added. After 60 min more, the fluorescence transfer was measured at λex=320 nm and λem=620 and λem=665 nm using a microplate reader (Envision, Perkin Elmer) (LANCE). The enzyme activity was determined by dividing the signal measured at λem=665 nm by that measured at 620 nm (ratio).

In test [2] the test system is HBV. In words: Determination of HBV viral RNA by RT-qPCR in PHH. It counts as cell-based. Conditions: Hepatitis B virus, read-out: HBV RNA EC50.
Protocol: HBV antiviral activity was assessed in primary human hepatocytes (PHH) in a 96-well format. PHH were (Life Technologies, Chicago, 11) plated on collagen coated tissue culture plates using Plating Media containing William's Medium E supplemented with 1% Penicillin/Streptomycin, 4 μg/mL human recombinant insulin, 2 mM glutamax, 15 mM Hepes, 1 μM dexamethasone and 5% fetal bovine serum (Life Technologies, Cat#A12176-01 Life Technologies, Chicago, Ill.). After a 4-hour incubation at 37° C., cells were switched to Maintenance Media (Cat#CM4000-A15564 Life Technologies, Chicago, Ill.) containing William's Medium E supplemented with 0.5% Penicillin/Streptomycin, 6.25 μg/mL human recombinant insulin, 6.25 μg/mL human transferrin, 6.25 ng/mL selenous acid, 1.25 mg/mL bovine serum albumin, 5.35 μg/mL linoleic acid, 2 mM glutamax, 15 mM Hepes, 0.1 μM dexamethasone, 2% fetal bovine serum, and 2% DMSO (Cat#D2650 Sigma, St. Louis, Mo.). On the next day, cells were infected with approximately 500 genome equivalent of selected HBV clinical isolates (21P (GTA), 32P (GTA), 91P (GTA), AD38 (GTD), 65P (GTD) or 30P (GTE); ProteoGenex, Culver City, Calif.) per cell in Maintenance Media supplemented with 4% PEG 8000 (Cat#V3011 Promega, Madison, Wis.). After 24 hour incubation cells were washed three times with William's Medium E and fed with fresh Maintenance Media. Small molecule inhibitors targeting KDMs were serially diluted in Maintenance Media and added to cells at 3 days post infection (p.i.). Media with compounds was replenished every 2-3 days. Media collected on various days was used for determination of HBsAg and HBeAg levels by MSD ELISA, and HBV RNA by qPCR. All data were converted into percentages of the untreated control and non-linear regression was performed to calculate EC50 or CC50 values.
Following the Alamar Blue measurement, media was removed and total RNA from the cells was isolated using the RNeasy 96 Kit (Cat#74182 Qiagen, Venlo, Netherlands). […] GAPDH mRNA levels were also measured by RT-qPCR to control for differences in cell number, toxicity, and RNA purification efficiency (Cat#4390849 Life Technologies, Chicago Ill.). HBV mRNA Ct values were normalized using their cognate GAPDH mRNA Ct values by the delta-delta-Ct calculation and then expressed as a percentage of the non-targeting scrambled control.

For orientation: IC50 means the concentration that inhibits the measured activity by half. In the case of `CCN(CCN(C)C)C(=O)CNCc1cc(C(=O)O)ccn1` [Example 9], in test [1], the IC50 amounted to 1600 nM. As to `CCN(CC)CCCCNCc1cc(C(=O)O)ccn1` [Example 18], in test [1], the IC50 was 12000 nM. The term EC50 denotes the concentration giving half of the maximal effect. Turning to `Nc1c(C(=O)O)ccnc1C(=O)O` [Example 7, reference compound], in test [1], the IC50 came out at 160 nM. Moreover, in test [2] (HBV-infected PHH), the EC50 amounted to 224 nM.

Turning to `CCOC(=O)c1ccnc(CNCC(=O)N(CC)CCN(C)C)c1` [Example 8], the EC50 in test [2] worked out at 100 nM.

In the case of `Cc1cc(Cl)ccc1COc1ccnn1-c1cc(C(=O)O)ccn1` [Example 11], the IC50 in test [1] was found to be 660 nM. Same read-out and setting: then `O=C(O)c1ccncc1Nc1nn(CCN2CCC(F)(F)CC2)c2ccc(F)cc12` [Example 13], with 2400 nM.
